SMILES strings stand for the structures.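 Five compound concentrations were applied to cells in 96-well plates for 48 hours; endpoints were derived by simple linear interpolation of the resulting dose-response curve. GI50 is the concentration that inhibits growth by half. Definition used: TGI = concentration required for complete inhibition of growth.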

Among the data in PubChem BioAssay (NCI) are GI50 and TGI values, retold here.

Test systems include NCI-H23 lung; TK-10 renal; MALME-3M melanoma; UACC-257 melanoma; SNB-75 CNS; SK-MEL-5 melanoma; OVCAR-8 ovarian; OVCAR-3 ovarian; LOX IMVI melanoma.
What all share (assay): inhibition of tumour cell growth, NCI panel, 48 h

As to `N.N.O=C([O-])P(=O)([O-])[O-].[Na+].[Pt+4]`, the GI50 in the test with NCI-H23 lung, in the test on TK-10 renal, in the test with MALME-3M melanoma, with UACC-257 melanoma, with SNB-75 CNS and in the test on SK-MEL-5 melanoma was more than 100 µM each time. For the same compound, the GI50 with OVCAR-8 ovarian and in the test with OVCAR-3 ovarian was more than 100 µM in each case. Besides, the TGI with NCI-H23 lung, with TK-10 renal, in the test with MALME-3M melanoma, in the test with UACC-257 melanoma, in the test on SNB-75 CNS and with SK-MEL-5 melanoma was more than 100 µM each time. For the same compound, the TGI with OVCAR-8 ovarian and in the test on OVCAR-3 ovarian was more than 100 µM throughout.
On to `CC(C)c1ccc(C(c2ccc(OCC(=O)O)cc2)c2ccc(C(C)C)cc(=O)c2O)c(O)c(=O)c1`, for which the TGI turned out to be 20.4 µM with NCI-H23 lung; 42.8 µM in the test with TK-10 renal; 14.8 µM in the test with LOX IMVI melanoma; 41.6 µM in the test with UACC-257 melanoma; 16.2 µM with SNB-75 CNS; 9.14 µM with SK-MEL-5 melanoma. The values for the TGI in the test on OVCAR-8 ovarian and in the test with OVCAR-3 ovarian were 58.3 µM and 8.31 µM, respectively.
As to `OC/C=C(\I)CCCOCOCc1ccccc1`, the TGI is more than 100 µM with NCI-H23 lung; more than 100 µM in the test with TK-10 renal; 45.9 µM in the test on LOX IMVI melanoma; more than 100 µM in the test with SNB-75 CNS; 54.5 µM with SK-MEL-5 melanoma; more than 100 µM in the test on OVCAR-8 ovarian. The compound also registered a TGI in the test on OVCAR-3 ovarian of more than 100 µM.
On to `CC1=N/C(=C\c2cccc([N+](=O)[O-])c2)C(=O)O1`, for which the TGI is more than 100 µM in the test with NCI-H23 lung; more than 100 µM in the test on TK-10 renal; more than 100 µM in the test on MALME-3M melanoma; more than 100 µM in the test on UACC-257 melanoma; 91 µM in the test on SNB-75 CNS; more than 100 µM with SK-MEL-5 melanoma. Further, the TGI with OVCAR-8 ovarian is more than 100 µM.
Turning to `C/C=C1/C(=C/c2[nH]c(/C=c3\[nH]/c(=C/C4=NC(=O)C(CC)=C4C)c(C)c3CCC(=O)O)c(CCC(=O)O)c2C)NC(=O)C1C` (stereo unspecified), the GI50 in the test on NCI-H23 lung, in the test on TK-10 renal, in the test with LOX IMVI melanoma, with MALME-3M melanoma, in the test with SNB-75 CNS and in the test on SK-MEL-5 melanoma was more than 150 µg/mL each time. Also, in the test on OVCAR-8 ovarian, the GI50 was more than 150 µg/mL. Besides, the TGI with NCI-H23 lung, in the test on TK-10 renal, in the test on LOX IMVI melanoma, in the test on MALME-3M melanoma, with SNB-75 CNS and with SK-MEL-5 melanoma was more than 150 µg/mL each time. The compound also yielded a TGI in the test on OVCAR-8 ovarian of more than 150 µg/mL.
With `N#CCc1ccc(C(C#N)/C(CCCC(=O)Nc2cccc([N+](=O)[O-])c2)=N/NC(N)=S)cc1` (stereo unspecified), the TGI in the test with NCI-H23 lung, with TK-10 renal, in the test on LOX IMVI melanoma, in the test with MALME-3M melanoma, in the test on UACC-257 melanoma and in the test with SNB-75 CNS was more than 100 µM in each case. In addition, the TGI with SK-MEL-5 melanoma and in the test with OVCAR-3 ovarian was more than 100 µM in each case.
With `Fc1ccc(C2SCc3nc4ccccc4n32)cc1Cl` (stereo unspecified), the TGI in the test on NCI-H23 lung came to 58.1 µM; in the test with TK-10 renal, 67.1 µM; with LOX IMVI melanoma, 40.3 µM; with MALME-3M melanoma, 31 µM; in the test with UACC-257 melanoma, 56.7 µM; with OVCAR-8 ovarian, 48.1 µM.
As for `COC(=O)c1cc(C)c(C)c2c1NC(=O)CNC2=O`, the TGI with NCI-H23 lung, with UACC-257 melanoma, in the test with SNB-75 CNS, in the test on OVCAR-8 ovarian and in the test with OVCAR-3 ovarian was more than 100 µM each time.
Take `CCc1ccc(Nc2ccc([N+](=O)[O-])cc2[N+](=O)[O-])cc1`: the TGI in the test on NCI-H23 lung, in the test with TK-10 renal, in the test with MALME-3M melanoma, in the test with UACC-257 melanoma, in the test on SNB-75 CNS and in the test on SK-MEL-5 melanoma was more than 100 µM each time. Moreover, the TGI with OVCAR-8 ovarian and in the test on OVCAR-3 ovarian was more than 100 µM in each case.
`CN(C)C(c1ccccc1)C(O)c1ccccc1` (stereo unspecified): the TGI in the test with NCI-H23 lung, in the test with TK-10 renal, with LOX IMVI melanoma, with MALME-3M melanoma, in the test with UACC-257 melanoma and with SNB-75 CNS was more than 100 µM in each case. The TGI with OVCAR-3 ovarian is more than 100 µM.
As for `CCCCOC(=O)NC(=O)c1cn(C2CCCCC2)c(=O)[nH]c1=O`, the TGI was more than 100 µM with NCI-H23 lung; more than 100 µM in the test with TK-10 renal; more than 100 µM in the test on LOX IMVI melanoma; 80.4 µM with MALME-3M melanoma; more than 100 µM in the test with UACC-257 melanoma; more than 100 µM in the test with OVCAR-8 ovarian. In the test with OVCAR-3 ovarian, the TGI is more than 100 µM.
With `COC(C(O)c1ccc2c(c1)OCO2)P(=O)(c1ccccc1)c1ccccc1` (stereo unspecified), the TGI in the test on NCI-H23 lung, in the test with TK-10 renal, in the test with MALME-3M melanoma, in the test on UACC-257 melanoma, in the test with SNB-75 CNS and in the test on SK-MEL-5 melanoma was more than 100 µM each time. Further, the TGI in the test on OVCAR-8 ovarian is more than 100 µM; with OVCAR-3 ovarian it was 40.3 µM.
